One data set deals with T1, Prostaglandin E synthase (Homo sapiens, UniProt O14684).
T1 sequence (O14684 whole entry): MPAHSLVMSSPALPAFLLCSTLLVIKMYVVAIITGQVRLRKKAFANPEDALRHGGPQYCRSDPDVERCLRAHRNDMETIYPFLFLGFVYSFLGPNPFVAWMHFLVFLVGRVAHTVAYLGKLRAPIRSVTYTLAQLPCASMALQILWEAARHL
Put plainly: Inhibition of mPGES-1 activity in human A549 microsomal preparation using PGH2 as substrate preincubated for 15 mins followed by substrate addition for 1 min by RP-HPLC analysis. The data set is classed as microsomes, Microsome.

In data set [1] the target is T2, Leukotriene C4 synthase (Homo sapiens, UniProt Q16873).
T2 sequence (Q16873 whole entry): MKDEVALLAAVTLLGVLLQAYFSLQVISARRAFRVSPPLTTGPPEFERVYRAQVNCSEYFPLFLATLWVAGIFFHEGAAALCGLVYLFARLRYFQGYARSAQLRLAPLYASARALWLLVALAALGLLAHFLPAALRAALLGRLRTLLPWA
Put plainly: Inhibition of human recombinant LTC4S expressed in HEK293 cell microsomal fraction preincubated for 10 mins followed by LTA4-methyl ester addition and measured after 10 mins by UPLC-MS/MS analysis. The data set is classed as microsomes, Microsome.

For data set [2], the target named is T3, Polyunsaturated fatty acid 5-lipoxygenase (Homo sapiens, UniProt P09917).
T3 sequence (P09917 whole entry): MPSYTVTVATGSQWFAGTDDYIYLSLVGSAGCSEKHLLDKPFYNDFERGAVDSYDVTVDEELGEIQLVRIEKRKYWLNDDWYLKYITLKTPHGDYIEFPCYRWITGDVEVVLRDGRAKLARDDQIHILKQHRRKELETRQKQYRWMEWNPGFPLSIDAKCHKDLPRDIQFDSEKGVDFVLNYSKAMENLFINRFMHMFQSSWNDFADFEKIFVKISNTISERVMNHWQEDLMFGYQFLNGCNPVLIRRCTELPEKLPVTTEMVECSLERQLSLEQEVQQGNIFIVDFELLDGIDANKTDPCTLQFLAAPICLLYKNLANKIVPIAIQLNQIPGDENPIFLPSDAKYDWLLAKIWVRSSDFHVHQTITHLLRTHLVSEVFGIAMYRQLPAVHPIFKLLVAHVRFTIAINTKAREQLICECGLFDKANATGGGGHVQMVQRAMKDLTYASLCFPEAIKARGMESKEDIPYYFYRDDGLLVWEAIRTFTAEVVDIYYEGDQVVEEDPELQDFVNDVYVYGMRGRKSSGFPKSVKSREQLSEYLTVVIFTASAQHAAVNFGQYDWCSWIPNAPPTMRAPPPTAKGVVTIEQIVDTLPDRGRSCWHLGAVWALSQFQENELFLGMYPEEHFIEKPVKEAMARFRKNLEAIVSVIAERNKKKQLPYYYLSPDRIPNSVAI
Briefly: Inhibition of human recombinant 5-LOX expressed in Escherichia coli BL21 assessed as inhibition of […] 5-LO product LTB4 formation preincubated for 15 mins followed by arachidonic acid addition and measured after 10 mins by RP-HPLC analysis.

The target of data set [3] is T4, Polyunsaturated fatty acid 5-lipoxygenase (Homo sapiens) (UniProt P09917).
T4 sequence (whole entry): T3 sequence (P09917 whole entry)
Briefly: Inhibition of 5-LOX in human neutrophils assessed as reduction in FLAP-dependent 5-LO product LTB4 formation at upto 10 uM preincubated for 10 mins followed by A23187 addition and measured after 10 mins by RP-HPLC and UV detection method. In kind it is cell-based. The following applies: Neutrophil.

The test system of another data set is Neutrophil. Put plainly: Cytotoxicity against human neutrophils assessed as reduction in cell viability at 10 uM by LDH release assay. The data set is classed as toxicity, cell-based.
Data set [4] addresses T5, Prostaglandin E synthase (Homo sapiens) (UniProt O14684).
T5 sequence (whole entry): T1 sequence (O14684 whole entry)
Briefly: Inhibition of mPGES-1 activity in IL-1beta human A549 microsomal preparation at 10 uM using PGH2 as substrate preincubated for 15 mins followed by substrate addition for 1 min by RP-HPLC analysis. The data set is classed as microsomes. The settings on record: Microsome, time 16.0 min.

Data set [5] deals with T2, Leukotriene C4 synthase. Briefly: Inhibition of recombinant LTC4S (unknown origin) expressed in COS cells. In kind it is cell-based.

Each structure is given as a SMILES string. Activity calls are given as the source filed them. The rule behind the calls is not given here.

As usually defined, the IC50 is the concentration needed to halve the response being measured. As to `CC(c1ccc(Oc2ccccc2)cc1)c1nc2cc(-c3n[nH]c(=S)o3)ccc2[nH]1` (configuration not stated), the IC50 on Prostaglandin E synthase is 90 nM; on Leukotriene C4 synthase [1], 400 nM; in data set [2] it was 2620 nM. Further, the inhibition result in data set [3] was “Active”. For the same molecule, the Activity entry in the data set on Neutrophil is on record as “Non-Toxic”.
On to `O=C(Nc1cc(-c2n[nH]c(=S)o2)ccc1F)c1ccc(OCc2ccccc2)cc1`, for which the IC50 against Prostaglandin E synthase was 2200 nM.
On the same count and under the same terms, then `S=c1[nH]nc(-c2ccc3[nH]c(Cc4ccc(OCc5ccccc5)cc4)nc3c2)o1`, with 1600 nM.
Still for that read-out and setting: then `Cn1c(-c2ccc(OCc3ccccc3)cc2)nc2cc(-c3n[nH]c(=S)o3)ccc21`, with 1060 nM; and `O=C(Nc1cccc(-c2n[nH]c(=S)o2)c1)c1ccc(OCc2ccccc2)cc1`, with 2500 nM.
For the molecule `S=c1[nH]nc(-c2ccc3[nH]c(-c4ccc(OCc5ccccc5)cc4)nc3c2)o1`, the inhibition result in data set [4] and in data set [3] was “Active” in each case. Besides, the half-maximal inhibitory concentration (IC50) worked out at 30 nM at Prostaglandin E synthase, 700 nM on Leukotriene C4 synthase [1] and 1260 nM in data set [2]. Besides, the Activity entry in the data set on Neutrophil is on record as “Non-Toxic”.
Regarding `S=c1[nH]nc(-c2ccc3[nH]c(-c4ccc(Oc5ccccc5)cc4)nc3c2)o1`, the IC50 against Prostaglandin E synthase amounted to 30 nM; on Leukotriene C4 synthase [1] it was 2800 nM; in data set [2], 3710 nM. Further, the inhibition entry in data set [3] was “Active”. Further, the Activity entry with Neutrophil is “Non-Toxic”.
On to `COc1cc(-c2nc3cc(-c4n[nH]c(=S)o4)ccc3[nH]2)ccc1OCc1ccccc1`, for which the inhibition entry in data set [4] was “Active”.
In the case of `CC(C)c1ccc2c(c1)c(SC(C)(C)C)c(CC(C)(C)C(=O)O)n2Cc1ccc(Cl)cc1`, the IC50 at Leukotriene C4 synthase [5] amounted to 3000 nM.

For the origin of these results see ChEMBL document CHEMBL5154734, “Novel potent benzimidazole-based microsomal prostaglandin E2 synthase-1 (mPGES-1) inhibitors derived from BRP-201 that also inhibit leukotriene C4 synthase” (Eur J Med Chem, 2022).
